# Patent US5808139A (Ligand Pharmaceuticals Incorporated, priority 1994, dated 1998)
# pIC50, pKd: −log10 of the molar value. “Also recorded” adds a separate entry of the source.
# How the values were obtained:
# [1] = system: human progesterone receptor altered at the Tau-1 location; experiment: Co-transfection assay in CV-1 cells, progesterone receptor altered at Tau-1, antagonist activity; assay type: cell-based; conditions: for Efficacy (% maximal response relative to RU-486), CV-1 cells: antagonist activity; for pIC50: concentration required to reduce the maximal response by 50%, read-out: Potency (IC50), CV-1 cells
# Excerpt: (§1) This assay is described in further detail in U.S. Pat. Nos. 4,981,784 and 5,071,773, which are incorporated herein by reference. The co-transfection assay provides a method for identifying functional ligands (either agonists which mimic, or antagonists which inhibit, the effect of hormones) for ligand-responsive receptor proteins.
# (§2) The co-transfection assay provides a mechanism to evaluate ability of a compound to function as an agonist or antagonist of the activity modulated by an intracellular receptor. The co-transfection assay mimics an in vivo system in the laboratory. In the co-transfection assay, a cloned gene for an intracellular receptor is introduced by transfection (a procedure to induce cells to take up foreign genes) into a background cell substantially devoid of endogenous intracellular receptors. This introduced gene directs the recipient cells to make the intracellular receptor protein. A second gene is also introduced (co-transfected) into the same cells in conjunction with the intracellular receptor gene. This second gene functions as a reporter for the transcription-modulating activity of the target intracellular receptor. The reporter acts as a surrogate for the products normally expressed by a gene under control of the target receptor and its natural hormone.
# (§3) A preferred reporter gene is one which expresses the firefly enzyme luciferase. The co-transfection assay can detect small molecule agonists or antagonists of target intracellular receptors. Exposing the cells to an agonist ligand increases reporter activity in the transfected cells that can be conveniently measured, reflecting ligand-dependent, intracellular receptor-mediated increases in reporter transcription. To detect antagonists, the co-transfection assay is carried out in the presence of a constant concentration of an agonist known to induce a defined reporter signal. Increasing concentrations of a test antagonist will decrease the reporter signal. The co-transfection assay is therefore useful to detect both agonists and antagonists of specific intracellular receptors. It determines not only whether a compound interacts with a particular intracellular receptor, but also whether this interaction mimics (agonizes) or blocks (antagonizes) the effects of the natural regulatory molecules on target gene expression.
# (§4) Co-transfected cells are exposed to a medium to which is added the potential ligand that is being evaluated. If the candidate ligand diffuses into the cell and binds to the receptor and the resulting complex functions as an agonist, it binds to the co-transfected reporter gene and initiates transcription. When that gene is one that expresses, for example, luciferase, luciferase is produced which catalyzes a light-emitting reaction with its substrate luciferin. Thus, after cell lysis and the introduction of luciferin, the amount of light produced relative to the concentration of candidate ligand used in the assay provides a measure of the potency and efficacy of the compound tested. Antagonist activity is evaluated by adding the candidate ligand and a known agonist to the co-transfected cells.
# (§5) The receptor cDNA was introduced in a mammalian expression vector under the control of the Rous Sarcoma virus LTR. […] A reporter vector was also transfected, containing a firefly luciferase gene under the control of the hormone-responsive promoter. […] The level of luciferase activity was then measured in cell extracts. Light emission is directly proportional to the effectiveness of the hormone-receptor complex in activating gene expression.
# A total of three replicates per concentration point were tested for each compound, and the EC50 was calculated for each positive response. Both agonist and antagonist activity for each test compound was determined in parallel. […]
# [2] = system: endometrium of the uterus; experiment: Decidualization assay in pseudopregnant mice, oil-induced uterine weight gain; assay type: in vivo; conditions: for Inhibition of decidualization weight gain: vs oil control; for Net Uterine Weight Gain: intraluminal, autopsy Day 7, oil alone control 334.7 +/- 41.0
# Description: A successful pregnancy requires not only the effective collision and fusion of egg and spermatozoon, but also the provision of a receptive and supportive uterus. The preparation of the endometrium of the uterus for implantation (i.e. decidualization) starts well before the blastocyst arrives in the uterus.
# Psuedopregnant mice (i.e. mated with vasectomized males) were used to establish the assay system. […] At 16 hours of Day 4, a small volume of sesame oil (10 μl) was introduced to the lumen of the right uterine horn to serve as a decidual stimulus. The left horn was left undisturbed to serve as an internal control. Autopsies were performed on Day 7 to assess uterine wet weight gains in the stimulated versus non-stimulated uterine horns.
# Each of these compounds was intraluminally administered in an appropriate dosage on Day 4 along with the sesame oil administration.
# [3] = system: progesterone receptor (T47D cells); experiment: Antagonist assay in T47D (human breast cancer) cells (Tables 1 and 2); assay type: cell-based; conditions: for Efficacy (% maximal response relative to RU-486), T47D cells: antagonist activity; for pIC50: concentration required to reduce the maximal response by 50%, read-out: Potency (IC50), T47D cells
# Excerpt: The functional activities of the cyclocymopol analogues in the human breast cell line, T47D, were also investigated. T47D cells have proven to be a particularly useful model to investigate the molecular actions of sex steroids because they contain endogenous functional receptors for, and respond to, progestins, and their respective antagonists. […] In T47D cells, progestins induce de novo synthesis of a plasma-associated alkaline phosphatase, which has been reported to be similar, if not identical, to the alkaline phosphatase present in the normal breast and human milk. These tests were conducted according to the following illustrative example.
# The assay was also run using T47D (human breast cancer) cells.
# [4] = target: T1, human progesterone receptor (Homo sapiens, UniProt P06401); experiment: Progesterone receptor binding (displacement of 3H-progesterone, whole cell extract of transfected CV-1 cells); design: expressed in transfected cells; host or cells: CV-1 cells (calcium phosphate transfection), whole cell extract
# T1 sequence (P06401 1-933): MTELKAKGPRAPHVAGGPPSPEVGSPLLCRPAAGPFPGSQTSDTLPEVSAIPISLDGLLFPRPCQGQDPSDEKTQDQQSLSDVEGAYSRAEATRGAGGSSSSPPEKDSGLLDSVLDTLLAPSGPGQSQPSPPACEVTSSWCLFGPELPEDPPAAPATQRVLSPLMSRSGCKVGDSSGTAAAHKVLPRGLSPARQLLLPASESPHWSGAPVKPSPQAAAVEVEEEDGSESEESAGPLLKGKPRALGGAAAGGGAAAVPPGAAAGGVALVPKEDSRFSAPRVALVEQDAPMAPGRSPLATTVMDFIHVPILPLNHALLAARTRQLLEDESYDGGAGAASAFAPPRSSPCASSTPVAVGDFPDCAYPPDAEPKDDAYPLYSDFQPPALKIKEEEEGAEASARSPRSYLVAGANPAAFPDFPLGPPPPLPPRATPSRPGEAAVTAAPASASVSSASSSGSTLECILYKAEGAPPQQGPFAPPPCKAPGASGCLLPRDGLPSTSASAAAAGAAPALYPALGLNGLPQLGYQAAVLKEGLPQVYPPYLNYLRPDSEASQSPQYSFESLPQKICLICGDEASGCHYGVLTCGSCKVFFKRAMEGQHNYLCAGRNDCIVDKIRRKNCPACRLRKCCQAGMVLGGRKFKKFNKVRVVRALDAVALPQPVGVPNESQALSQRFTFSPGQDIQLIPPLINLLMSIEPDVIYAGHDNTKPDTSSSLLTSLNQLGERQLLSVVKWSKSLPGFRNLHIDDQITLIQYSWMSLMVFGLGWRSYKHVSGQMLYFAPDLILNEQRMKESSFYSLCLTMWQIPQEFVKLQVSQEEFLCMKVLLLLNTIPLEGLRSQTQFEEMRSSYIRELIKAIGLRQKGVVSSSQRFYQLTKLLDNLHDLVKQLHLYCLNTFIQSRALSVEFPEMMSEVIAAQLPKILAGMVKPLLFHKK
# Description: These tests were conducted according to the following illustrative example.
# CO2 for 40 hours prior to harvest.
# After incubation, cells were harvested and washed in phosphate buffered saline. Whole cell receptor extract was prepared by homogenizing the harvested cells in Tris-HCl buffer, pH=7.4, containing 30% glycerol, 1 mM EDTA, 12 mM monothioglycerol, 1 mM PMSF, and 0.5M potassium chloride. The homogenate was incubated at 4° C. for 60 min with resuspension every 10 min. The suspension was centrifuged (105,000×g, 60 min) and the supernatant was collected and flash frozen in liquid nitrogen and stored frozen at -70° C.
# To a […] final volume incubation mixture, […] of 7.5% (w/v) dextran-coated charcoal suspension in gelatin phosphate buffer was added. The mixture was vortexed and incubated at 4° C. for 10 min and then centrifuged at 3000 rpm for 10 min. The amount of bound tritiated hormone was determined by liquid scintillation spectrophotometry of an aliquot of the supernatant. […]
# T47D cells = experiment: Alkaline phosphatase activity in T47D cells (induction and its inhibition); assay type: cell-based, human; conditions: ligand alone; three days
# Excerpt: The functional activities of the cyclocymopol analogues in the human breast cell line, T47D, were also investigated. T47D cells have proven to be a particularly useful model to investigate the molecular actions of sex steroids because they contain endogenous functional receptors for, and respond to, progestins, and their respective antagonists. Moreover, these cells contain exceptionally high titers of progesterone receptors and are exquisitely sensitive to the actions of progestins in a manner quite similar to their actions in normal and neoplastic mammary epithelial cells. In T47D cells, progestins induce de novo synthesis of a plasma-associated alkaline phosphatase, which has been reported to be similar, if not identical, to the alkaline phosphatase present in the normal breast and human milk. These tests were conducted according to the following illustrative example. […] For routine induction of alkaline phosphatase, cells were treated for three days with two media changes and harvested as described below. […] Nuclei were sedimented at 2500 rpm, and the supernatant was saved as cytosol. The protein content of the cytosol was assayed by the method of Bradford. Alkaline phosphatase activity was determined by incubating one volume of cell extract with three volumes of 1 mg/ml p-nitrophenol phosphate prepared in DEAM (1M diethanolamine, pH=9, containing 2 mM magnesium chloride) at room temperature for 20 min. At the end of the incubation time, the reaction was stopped with an equal volume of 1N NaOH. Ten standards of p-nitrophenol were prepared in DEAM buffer and absorbance was read at 405 nm. Alkaline phosphatase activity is expressed as pmol p-nitrophenol formed/min/mg protein.
# [5] = target: T1, human progesterone receptor; experiment: Co-transfection (cis-trans) assay in CV-1 cells, agonist and antagonist mode; assay type: cell-based; design: expressed in transfected cells; host or cells: CV-1 cells (calcium phosphate transfection), whole cell extract; conditions: antagonist mode with 10^-8 M progesterone
# Excerpt: as §1, §2, §3, §4, §5
# A total of three replicates per concentration point were tested for each compound, and the EC50 was calculated for each positive response. Both agonist and antagonist activity for each test compound was determined in parallel.
pIC50 [1],pIC50 [3],pKd [4],Progesterone receptor agonist/antagonist activity [5],SMILES,"Efficacy (% maximal response relative to RU-486), CV-1 cells [1]",Inhibition of decidualization weight gain ([2]; 5 mg),Net Uterine Weight Gain ([2]; 5 mg),"Efficacy (% maximal response relative to RU-486), T47D cells [3]","Agonist activity, alkaline phosphatase induction (T47D cells)",Inhibition of decidualization weight gain ([2]; 0.1 mg),Net Uterine Weight Gain ([2]; 0.1 mg)
5.68,5.74,6.39,,"C=C1CC[C@@H](Br)C(C)(C)[C@@H]1Cc1cc(OC)c(C=O)cc1O [NN, (3R)-4'-Formylcyclocymopol monomethyl ether]",31%,,,83%,,,
6.00,6.07,6.35,,"C=C1CCCC(C)(C)C1Cc1ccc(Br)cc1 (stereo not drawn) [O, 1-Methylidene-2-(4'-bromophenyl)methyl-3,3-dimethylcyclohexane]",90%,,,85%,,,
5.92,6.56,6.36,,"C=C1CCC(C)(C)C1Cc1cc(OC)c(Br)cc1O (stereo not drawn) [P, 1-Methylidene-2-(2'-hydroxy-4'-bromo-5'-methoxyphenyl)methyl-3,3-dimethylcyclo-pentane]",100%,,,60%,,,
,,,progesterone receptor agonist activity,C=C1CC[C@@H](Br)C(C)(C)[C@H]1Cc1cc(OC)c(Br)cc1OC(C)=O [SO-51],,,,,functional agonists; also recorded: increased the activity of intracellular alkaline phosphatase in a concentration-dependent manner,,
5.74,6.49,7.02,,"C=C1CC[C@@H](Br)C(C)(C)[C@@H]1Cc1cc(OC)c(I)cc1O [V, (3R)-4'-Iodocyclocymopol monomethyl ether]",95%,,,85%,,,

# The remaining lines, values behind:
SMILES,pIC50 [1],pIC50 [3],pKd [4],Progesterone receptor agonist/antagonist activity [5],"Efficacy (% maximal response relative to RU-486), CV-1 cells [1]",Inhibition of decidualization weight gain ([2]; 5 mg),Net Uterine Weight Gain ([2]; 5 mg),"Efficacy (% maximal response relative to RU-486), T47D cells [3]","Agonist activity, alkaline phosphatase induction (T47D cells)",Inhibition of decidualization weight gain ([2]; 0.1 mg),Net Uterine Weight Gain ([2]; 0.1 mg)
"C=C1CCCC(C)(C)C1Cc1cc(OC)c(Br)cc1O (stereo in doubt) [J, (3R)-1-Debromocyclocymopol monomethyl ether]",,,,,95%,~91%,30.7 ± 16.2 mg,85%,,,
"C=C1C=C(C)CC(C)(C)C1Cc1ccc([N+](=O)[O-])cc1 (stereo not drawn) [I, 1-Methylidene-6-(4'-nitrophenyl)methyl-3,5,5-trimethylcyclohex-2-ene]",6.15,6.90,7.26,,95%,approximately 81%,63.9 ± 20.9 mg,75%,,,
"C=C1CCCCC1Cc1ccc([N+](=O)[O-])cc1 (stereo not drawn) [Q, 1-Methylidene-2-(4'-nitrophenyl)methylcyclohexane]",5.92,6.65,6.61,,95%,,,65%,,,
"C=C1CC[C@@H](Br)C(C)(C)[C@@H]1Cc1cc(OC)c(Br)cc1OC(=O)OC [T, (3R)-Cyclocymopol monomethyl ether, methyl carbonate]",5.80,6.52,6.73,,90%,,,90%,,,
"CN(C)c1ccc([C@H]2C[C@]3(C)[C@@H](CC[C@]3(O)CCCO)[C@@H]3CCC4=CC(=O)CCC4=C32)cc1 [ZK299, reference compound]",,,,,,,,,,approximately 88%,41.1 ± 21.0 mg
